Our source for the Ki values is US20060252698A1, “Compounds for inhibiting cathepsin activity” (priority 2005, published 2006).

SMILES strings stand for the structures. Starred links: 1 amine or outer side, 2 acyl side, 3 side chain; linkers in the order of their positions; H or OH if unused. Non-standard residues stand in square brackets, D forms with d. Residues, ends and D or L forms follow the SMILES beside them. *: point of attachment. Isobutyloxycarbonyl = CC(C)COC(=O)*; Hyp = O=C(O)[C@@H]1C[C@@H](O)CN1; X2 = CCCC(N[*:1])C(=O)C(=O)[*:2]; Tic = O=C(O)[C@@H]1Cc2ccccc2CN1; Chg = N[CH](C(=O)O)C1CCCCC1; Phg = N[CH](C(=O)O)c1ccccc1; Tle = CC(C)(C)[C@H](N)C(=O)O; Boc = CC(C)(C)OC(=O)*; CO = O=C([*:1])[*:2]; X1 = CC1(N*)CCCCC1; tBu = CC(C)(C)*

The target of the experiment is T1, Human Liver Cathepsin L (Homo sapiens, UniProt P07711).
T1 construct: purchased Calbiochem 219402
T1 sequence (P07711 114-288 limits assumed): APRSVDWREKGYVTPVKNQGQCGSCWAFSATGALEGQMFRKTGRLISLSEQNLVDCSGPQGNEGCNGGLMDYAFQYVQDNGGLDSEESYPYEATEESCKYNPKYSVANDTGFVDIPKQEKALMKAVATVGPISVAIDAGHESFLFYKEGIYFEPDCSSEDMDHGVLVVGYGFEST
T1 sequence (P07711 292-333 limits assumed): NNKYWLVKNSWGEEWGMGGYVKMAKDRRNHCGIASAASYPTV
As to the kind of experiment: Cathepsin L inhibition assay (kinetic, Z-Phe-Arg-pNA substrate). The format is biochemical. The conditions noted are these: Z-Phe-Arg-pNA 120 μM, enzyme 12 nM, pH 5.5, read at 410 nm. As to the method:
Cathepsin Assay Protocols:
• 1. 96-well Round or V-bottom microplates for dilutions • 2. 96-well COSTAR UV microplates for assay (COSTAR cat.#3635) • 3. Bio-Spin 6 Chromatography Columns (BIO-RAD cat.#732-6002). • 4. 12-75 mm test tubes • 5. Falcon 50 ml tubes • 6. Falcon 14 ml tubes • 7. 1.5 ml eppendorf tube • 8. ≦10 ml buffer reservoir Reagents: • 1. Enzyme: Cathepsin G, M.W.23,500, 10 μM stock. • 2. Substrate:Suc-Ala-Ala-Pro-Phe-pNA, M.W. 624.65, prep. 100 mM [62.465 mg/ml] stock. • 3. Buffer: [50 mM HEPES, 500 mM NaCl, 5 μM EDTA, pH 7.14], 5 μM DTT Instrument Settings: SpectraMax Plus • 1. Kinetic assay reading@405 nm • 2. Read interval: 30 seconds • 3. Time: 1 hour • 4. OD Min: −0.001 • 5. OD Max: 0.5 • 6. Data Mode: Absorbance • 7. e405=194.078 μM/O.D. Procedure: • 1. Add 73 μl of buffer to all wells. • 2. Add […] of buffer to (−E) controls. • 3. Add 7 μl of sample and/or DMSO for controls to appropriate wells. • 4. Prep. substrate: 100 mM (62.465 mg/ml) stock in 100% DMSO. • 5. Dilute 1:20 in buffer. 75 μl in 1.425 ml. 5 mM final. • 6. Add 20 μl of 5 mM substrate to all wells. 500 μM final. • 7. Dilute enzyme (1:50) in buffer; Add 120 μl to 5,880 μl buffer. 2×[200 nM] final. • 8. Add 100 μl of 2× [200 nM] enzyme to assigned wells, except (−E) controls. [100 nM] final. • 11. Vortex 20 seconds. Read@ 405 nM every 30 seconds for 1 hour on SpectraMax Plus • Endpoint assay reading plate@ 600 nM. Used for the detection of precipitation. Cathepsin H: Materials: • 1. 96-well Round or V-bottom microplates for dilutions • 2. 96-well COSTAR UV microplates for assay (COSTAR cat.#3635) • 3. Bio-Spin 6 Chromatography Columns (BIO-RAD cat.#732-6002) • 4. 12-75 mm test tubes • 5. Falcon 50 ml tubes • 6. Falcon 14 ml tubes • 7. 1.5 ml eppendorf tube • 8. ≧10 ml buffer reservoir Reagents: • 1. Enzyme: Cathepsin H, M.W.28,000, 9.07 μM stock. • 2. Substrate:H-Arg-pNA, M.W. 367.2, prep. 50 mM [18.36 mg/ml] stock. • 3. Buffer: [100 mM NaP04, 1 mM EDTA, 1 mM DTT, pH 6.5 Instrument Settings: SpectraMax Plus • 1. Kinetic assay reading@410 nM • 2. Read interval: 30 seconds • 3. Time: 1 hour • 4. OD Min: −0.001 • 5. OD Max: 0.05 • 6. Data Mode: Absorbance • 7. e410=188.415 μM/O.D. Km=108±5 μM Procedure: • 1. Prep. substrate: 50 mM (18.36 mg/ml) stock in 100% DMSO. • 2. Add 73 μl of buffer to all wells. • 3. Add 7 μl of sample to appropriate wells: a.) 100% DMSO for (+E) & (−E) controls. • 4. Add 100 μl of buffer to (−E) controls. • 5. Dilute substrate (1:20) in buffer; Add 140 μl to 2.66 ml buffer while vortexing. [2.5 mM] final. • 6. Add 20 μl of substrate to all wells. Vortex 3-5 seconds. [250 μM] final. • 7. Dilute enzyme (1:64.8) in buffer; Add 179 μl to 11.418 ml buffer. 2× [140 nM] final. • 8. Add 100 μl of 2× [140 nM] enzyme to assigned wells, except (−E) controls. [70 nM] final. • 9. Read@410 nM every 30 seconds for 1 hour on SpectraMax Plus Cathepsin L: Materials: • 1. 96-well Round or V-bottom microplates for dilutions • 2. 96-well COSTAR UV microplates for assay (COSTAR cat.#3635) • 3. Falcon 50 ml tubes • 4. Falcon 14 ml tubes • 5. 1.5 ml eppendorf tube • 6. 10 ml buffer reservoir Reagents: • 1. Enzyme: Calbiochem #219402: Cathepsin L, M.W.29,000, 11.62 μM stock. Lot#B45683 • 2. Substrate: Bachem #L-1242: Z-Phe-Arg-pNA, M.W. 612.09, prep. 4.8 mM [2.938 mg/ml] stock in 100% DMSO. • 3. Buffer: [100 mM NaP04, 1 mM EDTA, pH 5.5] Supplement buffer w/1 mM DTT, day of assay. Experiment #1: • Instrument settings: SpectraMax Plus microtiter plate reader (Molecular Devices, Sunnydale, Calif.) • 1. Kinetic assay reading@410 nM • 2. Read interval: 30 seconds • 3. Time: 1 hour • 4. OD Min: −0.001 • 5. OD Max: 0.05 • 6. Data Mode: Absorbance • 7. ε410=161.311 μM/O.D. Km=56±8 μM Procedure: • 1. Add 88 μl of buffer to all wells. • 2. Add 7 μl of sample or 100% DMSO to appropriate wells. • 3. Add 100 μl of buffer to (−E) controls. • 5. Add 5 μ 4.8 mM] substrate to all wells. [120 μM] final. • 6. Vortex 3-5 seconds. • 7. Dilute enzyme (1:483.87) in buffer; Add 24.8 μl to 12,000 μl buffer. 2×[24 nM] final. • 8. […]
As a reminder, the Ki is the dissociation constant of the complex between target and ligand, obtained from inhibition or displacement. Read a high Ki as lower affinity. `CC(=O)N[C@@H](CC(C)C)C(=O)N[C@@H](CC(C)C)C(=O)N[C@H](C=O)CCCNC(=N)N` [drawing 688] gave a Ki of 1.9 nM. Regarding `CC1(C)[C@@H]2[C@H]3C(=O)N[C@H](C(=O)C(=O)NC4CC4)CCCCCCCCC[C@H](NC(=O)NC4(C5CCCS5(=O)=O)CCCCC4)C(=O)N3C[C@@H]21` (some centres unmarked), the affinity, expressed as Ki, was 110 nM.

For `C=CCNC(=O)C(=O)[C@H](CCCC)NC(=O)[C@@H]1[C@@H]2[C@H](CN1C(=O)[C@@H](NC(=O)NC1([C@H]3CCCS3(=O)=O)CCCCC1)C(C)(C)C)C2(C)C` [drawing 681], the Ki came out at 140 nM.

Molecule `C=CCNC(=O)C(=O)[C@@H]1CCCCCCCCC[C@H](NC(=O)NC2(CS(=O)(=O)C(C)(C)C)CCCCC2)C(=O)N2C[C@H]3[C@@H]([C@H]2C(=O)N1)C3(C)C` [drawing 653] yielded a Ki of 10 nM. Next, `CN(C)C(=O)c1nc(CNC(=O)C(=O)C(CC2CCC2)NC(=O)[C@@H]2[C@@H]3[C@H](CN2C(=O)[C@@H](NC(=O)NC(C)(C)C)C(C)(C)C)C3(C)C)sc1-c1ccccc1` (some centres unmarked): 190 nM; `C=CCNC(=O)C(=O)C(CCC)NC(=O)[C@@H]1[C@@H]2[C@H](CN1C(=O)[C@@H](NC(=O)N[C@H](CN1CCCCC1=O)C(C)(C)C)C1Cc3ccccc3C1)C2(C)C` (some centres unmarked): 140 nM.

Take `C=CCNC(=O)C(=O)[C@@H]1CCCCCCCCC[C@H](NC(=O)N[C@H](CN2CCC(C)(C)CC2=O)C(C)(C)C)C(=O)N2C[C@H]3[C@@H]([C@H]2C(=O)N1)C3(C)C`: the inhibition constant (Ki) was 366 nM.

The molecule `CN(C)C(=O)[C@@H](NC(=O)CNC(=O)C(=O)C(CC1CC1)NC(=O)[C@@H]1[C@H]2CC(C)(C)O[C@H]2CN1C(=O)[C@@H](NC(=O)OC(C)(C)C)C1CCCCC1)c1ccccc1` (some centres unmarked) gave a Ki of 97 nM. `CC1([C@H](NC(=O)NC2(C3CCCS3(=O)=O)CCCCC2)C(=O)N2C[C@H]3[C@@H]([C@H]2C(=O)N[C@@H](CCC2CC2)C(=O)C(=O)NC2CC2)C3(C)C)CCCCC1` (some centres unmarked) came in with a Ki of 24 nM.

Molecule `COc1ccc2c(O[C@@H]3C[C@H]4C(=O)N[C@]5(C(=O)O)CC5/C=C\CCCCC[C@H](NC(=O)OC5CCCC5)C(=O)N4C3)cc(-c3csc(NC(C)C)n3)nc2c1` (some centres unmarked) gave an inhibitory constant (Ki) of 38 nM.

As for `C=CCNC(=O)C(=O)C(CC1CC1)NC(=O)[C@@H]1[C@@H]2[C@H](CN1C(=O)[C@@H](NC(=O)N[C@H](CN1C(=O)CC(C)(C)CC1=O)C(C)(C)C)C(C)(C)O)C2(C)C` (some centres unmarked), the Ki came out at 20 nM. For `C=CCNC(=O)C(=O)C(CCC)NC(=O)[C@@H]1CCCN1C(=O)[C@@H](NC(=O)NC1(CS(C)(=O)=O)CCCCC1)C(C)(C)C` (some centres unmarked), the affinity corresponds to a Ki of 740 nM. Next, `CC(=O)N[C@@H](CC(C)C)C(=O)N[C@@H](CC(C)C)C(=O)N[C@H](C=O)CCCNC(=N)N` [drawing 687]: 9 nM; `CCCC(NC(=O)[C@@H]1C[C@@H](OC(C)(C)C)CN1C(=O)[C@@H](NC(=O)NC1(C)CCCCC1)C(C)(C)C)C(=O)C(=O)NCC(=O)N[C@H](C(=O)N(C)C)c1ccccc1` (some centres unmarked) ({X1-CO}-[Tle][Hyp](tBu)[X2]G[Phg]-NMe2): 170 nM; `CC(C)(C)OC(=O)N[C@H](C(=O)N1CCC[C@H]1C(=O)NC(CC1CCC1)C(=O)C(N)=O)C(C)(C)C` (some centres unmarked): 1900 nM. With `CCCC(NC(=O)C(CC(C)C)NC(=O)C(NC(=O)OCC(C)C)C1CCCCC1)C(=O)C(=O)NCC(=O)NC(C(N)=O)c1ccccc1` (centres unmarked) (Isobutyloxycarbonyl-[Chg]L[X2]G[Phg]-NH2; configuration not given here) the figure was 2 nM.

Molecule `CCCC[C@H](NC(=O)[C@@H]1[C@@H]2[C@H](CN1C(=O)[C@@H](NC(=O)NC1(CS(=O)(=O)C(C)(C)C)CCCCC1)C(C)(C)C)C2(C)C)C(=O)C(=O)NC1CC1` [drawing 652] gave a Ki of 7 nM. The molecule `CC(C)(C)NC(=O)N[C@H]1CCCCCCCCCC[C@@H](C(=O)C(N)=O)NC(=O)[C@@H]2[C@@H]3[C@H](CN2C1=O)C3(C)C` gave an inhibition constant (Ki) of 300 nM. `CC(C)(C)[C@H](NC(=O)NC1(CS(=O)(=O)C(C)(C)C)CCCCC1)C(=O)N1C[C@H]2[C@@H]([C@H]1C(=O)N[C@@H](CCC1CC1)C(=O)C(=O)NC1CC1)C2(C)C` [drawing 671] returned an inhibitory constant (Ki) of 47 nM. The molecule `CCCC(NC(=O)[C@H](CC(C)C)NC(=O)C(NC(=O)OC(C)(C)C)C(C)(C)C)C(=O)C(N)=O` (some centres unmarked) displayed a Ki of 20 nM.

For the molecule `CC(C)(C)[C@H](NC(=O)NC1(CS(=O)(=O)C(C)(C)C)CCCCC1)C(=O)N1C[C@H]2[C@@H]([C@H]1C(=O)N[C@@H](CCC1CC1)C(=O)C(=O)NC1CC1)C2(C)C` [drawing 662], the affinity, expressed as Ki, was 25 nM.

The molecule `CCC[C@H](NC(=O)[C@@H]1[C@H]2CCC[C@H]2CN1C(=O)[C@@H](NC(=O)[C@@H](NC(=O)c1cnccn1)C1CCCCC1)C(C)(C)C)C(=O)C(=O)NC1CC1` returned a Ki of 104 nM. For the molecule `CCCC[C@H](NC(=O)[C@@H]1[C@@H]2[C@H](CN1C(=O)[C@@H](NC(=O)NC1(CS(=O)(=O)C(C)(C)C)CCCCC1)C1(C)CCCCC1)C2(C)C)C(=O)C(=O)NC1CC1`, the Ki came out at 11 nM. For `C=CCNC(=O)C(=O)[C@H](CCC1CC1)NC(=O)[C@@H]1[C@@H]2[C@H](CN1C(=O)[C@@H](NC(=O)NC1(CS(=O)(=O)C(C)(C)C)CCCCC1)C(C)(C)C)C2(C)C` [drawing 670], the inhibition constant Ki is 45 nM. `CCC[C@H](NC(=O)[C@@H]1[C@@H]2[C@H](CN1C(=O)[C@@H](NC(=O)NC1([C@H]3CCCS3(=O)=O)CCCCC1)C1(C)CCCCC1)C2(C)C)C(=O)C(=O)NC1CC1`: the Ki was 31 nM.

Take `CCCC[C@H](NC(=O)[C@@H]1[C@@H]2[C@H](CN1C(=O)[C@@H](NC(=O)NC1(CS(=O)(=O)C(C)(C)C)CCCCC1)C(C)(C)C)C2(C)C)C(=O)C(=O)NC1CC1` [drawing 667]: the inhibition constant (Ki) came out at 40 nM. `CC(C)(C)OC(=O)N[C@H](C(=O)N1C[C@H]2[C@@H]([C@H]1C(=O)NC(CC1CC1)C(=O)C(N)=O)C(C)(C)C2(C)C)C1CCCCC1` (some centres unmarked) gave a Ki of 220 nM. In turn, `CC(C)C[C@@H](C(=O)NC(CC1CCC1)C(=O)C(N)=O)N1CCCCCC[C@H](NC(=O)N[C@@H](C(=O)OC(C)C)C(C)(C)C)C1=O` (some centres unmarked) came in with a Ki of 120 nM.

`CCCC(NC(=O)[C@@H]1Cc2ccccc2CN1C(=O)[C@@H](NC(=O)OC(C)(C)C)C1CCCCC1)C(=O)C(=O)NCC(=O)N[C@H](C(=O)NC)c1ccccc1` (some centres unmarked) (Boc-[Chg][Tic][X2]G[Phg]-NHMe) returned an inhibition constant Ki of 36 nM.
